Source: ChEMBL document CHEMBL1201862, “PubChem BioAssay data set” (2004)
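Each compound was tested at five concentrations against cells in 96-well plates for 48 hours. At the GI50, growth is halved.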 Active and inactive are the calls of the source. Cut-off read from the data, not from the text of the source: active = GI50 up to about 1.1 µM and inactive = higher.

Legend:
Experiment in all cases: NCI-60 cell line screen, 48 h
NCI-H522 = test system: NCI-H522
IGROV-1 = test system: IGROV-1
SF-268 = test system: SF-268
KM-20L2 = test system: KM-20L2
SK-MEL-2 = test system: SK-MEL-2
RXF 393 = test system: RXF 393
SF-539 = test system: SF-539
CAKI-1 = test system: CAKI-1
SNB-78 = test system: SNB-78
M14 = test system: M14
HL-60 = test system: HL-60
MOLT-4 = test system: MOLT-4
M19-MEL = test system: M19-MEL
786-0 = test system: 786-0
K562 = test system: K562
OVCAR-8 = test system: OVCAR-8
RPMI-8226 = test system: RPMI-8226
UACC-257 = test system: UACC-257
A549 = test system: A549
HOP-92 = test system: HOP-92
SF-295 = test system: SF-295
COLO 205 = test system: COLO 205
SNB-19 = test system: SNB-19
SN12C = test system: SN12C
HCT-116 = test system: HCT-116
NCI-H460 = test system: NCI-H460
LOX IMVI = test system: LOX IMVI
EKVX = test system: EKVX
UO-31 = test system: UO-31
UACC-62 = test system: UACC-62
TK-10 = test system: TK-10
CCRF-CEM = test system: CCRF-CEM
DMS-273 = test system: DMS-273
HCT-15 = test system: HCT-15
HT-29 = test system: HT-29
HOP-62 = test system: HOP-62
ACHN = test system: ACHN
LXFL 529 = test system: LXFL 529
SK-MEL-28 = test system: SK-MEL-28
KM12 = test system: KM12
A498 = test system: A498
SR = test system: SR
HCC 2998 = test system: HCC 2998
OVCAR-3 = test system: OVCAR-3
SK-OV-3 = test system: SK-OV-3
NCI-H23 = test system: NCI-H23
SW-620 = test system: SW-620
U-251 = test system: U-251
Malme-3M = test system: Malme-3M
OVCAR-4 = test system: OVCAR-4
DMS-114 = test system: DMS-114
OVCAR-5 = test system: OVCAR-5
SNB-75 = test system: SNB-75

COC1OC(CBr)C(OC(=O)c2ccccc2)C(OS(=O)(=O)c2ccc(C)cc2)C1Br (centres undefined)
GI50 (NCI-H522): > 100 µM (inactive) | GI50 (IGROV-1): > 10 µM (inactive) | GI50 (SF-268): > 100 µM (inactive) | GI50 (KM-20L2): > 100 µM (inactive) | GI50 (SK-MEL-2): > 100 µM (inactive) | GI50 (RXF 393): > 100 µM (inactive) | GI50 (SF-539): > 100 µM (inactive) | GI50 (CAKI-1): > 100 µM (inactive) | GI50 (SNB-78): > 100 µM (inactive) | GI50 (M14): > 100 µM (inactive) | GI50 (HL-60): > 100 µM (inactive) | GI50 (MOLT-4): > 100 µM (inactive) | GI50 (M19-MEL): > 100 µM (inactive) | GI50 (786-0): > 100 µM (inactive) | GI50 (K562): > 100 µM (inactive) | GI50 (OVCAR-8): > 100 µM (inactive) | GI50 (RPMI-8226): > 100 µM (inactive) | GI50 (UACC-257): > 100 µM (inactive) | GI50 (A549): > 100 µM (inactive) | GI50 (HOP-92): 70.1 µM (inactive) | GI50 (SF-295): > 100 µM (inactive) | GI50 (COLO 205): > 100 µM (inactive) | GI50 (SNB-19): > 100 µM (inactive) | GI50 (SN12C): > 100 µM (inactive) | GI50 (HCT-116): > 100 µM (inactive) | GI50 (NCI-H460): > 100 µM (inactive) | GI50 (LOX IMVI): > 100 µM (inactive) | GI50 (EKVX): > 100 µM (inactive) | GI50 (UO-31): > 100 µM (inactive) | GI50 (UACC-62): > 10 µM (inactive) | GI50 (TK-10): > 100 µM (inactive) | GI50 (CCRF-CEM): > 100 µM (inactive) | GI50 (DMS-273): > 100 µM (inactive) | GI50 (HCT-15): > 100 µM | GI50 (HT-29): > 100 µM (inactive) | GI50 (HOP-62): > 100 µM (inactive) | GI50 (ACHN): > 100 µM (inactive) | GI50 (LXFL 529): > 100 µM (inactive) | GI50 (SK-MEL-28): > 100 µM (inactive) | GI50 (KM12): > 100 µM (inactive) | GI50 (A498): > 100 µM (inactive) | GI50 (SR): > 100 µM (inactive) | GI50 (HCC 2998): > 100 µM (inactive) | GI50 (OVCAR-3): > 100 µM (inactive) | GI50 (SK-OV-3): > 10 µM (inactive) | GI50 (NCI-H23): > 100 µM (inactive) | GI50 (SW-620): > 100 µM (inactive) | GI50 (U-251): > 100 µM (inactive) | GI50 (Malme-3M): > 100 µM (inactive) | GI50 (OVCAR-4): > 100 µM (inactive)

CCO[C@@H]1OC(=O)[C@](C)(C(C)=O)[C@@H]1C
GI50 (NCI-H522): > 100 µM (inactive) | GI50 (IGROV-1): > 100 µM (inactive) | GI50 (SF-268): 14.7 µM (inactive) | GI50 (KM-20L2): > 100 µM (inactive) | GI50 (SK-MEL-2): 55.2 µM (inactive) | GI50 (RXF 393): 41.5 µM (inactive) | GI50 (SF-539): 23.1 µM (inactive) | GI50 (SNB-78): 33.7 µM (inactive) | GI50 (M14): 67 µM (inactive) | GI50 (HL-60): 17.9 µM (inactive) | GI50 (DMS-114): 37.2 µM (inactive) | GI50 (MOLT-4): 23.3 µM (inactive) | GI50 (M19-MEL): 58.1 µM (inactive) | GI50 (K562): 44.2 µM (inactive) | GI50 (RPMI-8226): 18.8 µM (inactive) | GI50 (UACC-257): > 100 µM (inactive) | GI50 (HOP-92): 27.5 µM (inactive) | GI50 (SF-295): 36.8 µM (inactive) | GI50 (COLO 205): > 100 µM (inactive) | GI50 (SNB-19): 75.3 µM (inactive) | GI50 (NCI-H460): > 100 µM (inactive) | GI50 (UO-31): > 100 µM (inactive) | GI50 (UACC-62): 57.8 µM (inactive) | GI50 (CCRF-CEM): 14.7 µM (inactive) | GI50 (HT-29): 68.4 µM (inactive) | GI50 (OVCAR-5): > 100 µM (inactive) | GI50 (HOP-62): 43.2 µM (inactive) | GI50 (ACHN): > 100 µM (inactive) | GI50 (LXFL 529): 40.6 µM (inactive) | GI50 (SK-MEL-28): 37.5 µM (inactive) | GI50 (KM12): > 100 µM (inactive) | GI50 (A498): > 100 µM (inactive) | GI50 (SR): 27.9 µM (inactive) | GI50 (SNB-75): 0.21 µM (active) | GI50 (OVCAR-3): 29 µM (inactive) | GI50 (SK-OV-3): 59 µM (inactive) | GI50 (NCI-H23): 16.8 µM (inactive) | GI50 (U-251): 34.4 µM (inactive) | GI50 (OVCAR-4): 71.9 µM (inactive)
